Results taken from patent US20150082479A1, “CHEMICAL SELECTION OF RESISTANT GAMETES OF PLANTS IN THE FIELD” (PIONEER HI BRED INTERNATIONAL INC, priority 2008, published 2015).

Columns and labels:
Assay type in all cases: in vivo, maize
[1] = system: non-transgenic gametes; experiment: Field application of herbicide to hemizygous glyphosate resistant plants at V12-V19; crosses, progeny seedlings sprayed, survivors counted, chi square of segregation ratios
Experimental: The elimination of non-transgenic gametes was also tested at the V12-V19 stages. Meiosis sorted the transgene of a diploid hemizygous microsporophyte or macrosporophyte into one-half of the gametes. The resulting transgenic construct contained a gene conferring plant resistance or tolerance to a specific herbicide, namely glyphosate. Application of the herbicide treatments at various growth phases eliminated gametes lacking the transgenic construct.
Glyphosate treatments included: V12, V17, V19, V15+V17, and V17+V19. Each application, included splits 3 quarts/A. Only resistant plants were sprayed. Glufosinate treatments included: V12, V17, V18, V19, V15+V17, and V17+V19. Each application, included splits 1.5 quarts/A. Only resistant plants were sprayed.
Pollination of the sprayed resistant plants included: 4 selfed, 4 pollinations from unsprayed resistant, 4 pollinations from susceptible. Pollination of the unsprayed resistant plants included: 4 selfed, 4 pollinations from sprayed resistant, 4 pollinations from susceptible. […]
Survivors were counted and chi square analysis performed to determine whether segregation ratios deviated from the null hypothesis (e.g., 75:25 resistant phenotype for selfs or crosses within the resistant hemizygous hybrids, 50:50 resistant phenotype for crosses between resistant and susceptible hybrids, or 100% mortality for susceptible selfed seed).

[2] = system: wild type ovules; experiment: Non-treated wild type pollen crossed to treated heterozygous plants; progeny leaf dip test
Description: (§1) Four row plots of a heterozygous inbred for glyphosate resistance were established. At the V10, V12, V14 and V10+V14 stages of plant development, glyphosate was broadcast to the center two rows. The WeatherMax glyphosate formulation was applied at 0, 1.6 and 3.2 l/Ha, such rates corresponding to 0, 1 and 2 times the normal commercial rates in corn production. To assure there was no glyphosate drift on the non-treated controls, non-treated plants were separated by 16 border rows.
(§2) A series of crosses were made from the treated plants to identify the gamete rouging effects of glyphosate on both pollen and ovules. To characterize the effects on pollen, heterozygous plants treated with glyphosate were crossed onto a wild type inbred. To characterize the effect of glyphosate on ovules, non-treated wild type pollen was crossed to heterozygous plants treated with glyphosate. Finally, the treated heterozygous plants were selfed and tested for zygosity via quantitative PCR.
(§3) The progeny of the various crosses from Example 2 were evaluated by two methods. In the first method, 25 seeds per replication (4 replications in total) were planted into rag dolls and grown at 25° C. in darkness four days. After this time, the rag dolls were transferred to a greenhouse to allow the shoots to turn green. After four days in the greenhouse, seedlings for each rag doll were dipped in a 2% v/v solution of RoundUp Ultra (concentration corresponding to common concentrations in spray applications at the field level). After one week, individual plants were rated as normal, dead or abnormal. Normal plants were assumed to carry the gene for tolerance to glyphosate, dead plants were assumed to be wild type.
The effects of glyphosate on wild type ovules were less pronounced than for pollen gametes (as expressed in FIG. 8). In the control treatment, untreated heterozygous plants were pollinated with homozygous wild type pollen. Expected segregation ratios for the progeny of this cross would be 50% resistant and 50% susceptible. Here, the control progeny segregated at 54% resistant, statistically equal to the expected ratio of 50%. […] At the highest rate of glyphosate, the segregation of progeny was clearly disturbed. High rates applied at the V14 stage produced progeny nearly 100% resistant, while applications made before V14 were intermediate.

[3] = system: wild type gametes; experiment: Treated heterozygous plants selfed; progeny leaf dip test; details: all treatments except V12 at the lowest rate, non-treated 75% (FIG. 9)
Description: as §1, §2
The progeny of the various crosses from Example 2 were evaluated by two methods. In the first method, 25 seeds per replication (4 replications in total) were planted into rag dolls and grown at 25° C. in darkness four days. After this time, the rag dolls were transferred to a greenhouse to allow the shoots to turn green. […]

[4] = system: wild type gametes; experiment: Treated hemizygous plants selfed; progeny scored for level of zygosity via QtPCR
Description: as §2
In the second method of analysis, the glyphosate resistant selfed plants were grown in the field and leaf punched at the V8 stage of development. Leaf tissues were then frozen and scored for their level of zygosity according to standard PCR protocols for glyphosate resistance. The data from the progeny tests was arc sine transformed and submitted to a common analysis of variance. Since the F-test for overall treatments was highly significant, tests of significance between the controls and the various treatments were also conducted.
Plants hemizygous for glyphosate resistance were sprayed with glyphosate and then selfed. The progeny were then scored for level of zygosity via QtPCR. While the results from PCR corroborate data from the leaf dip assays, the magnitude of the response is less (as expressed in FIG. 10).

[5] = system: wild type pollen; experiment: Treated heterozygous plants crossed onto wild type inbred; progeny leaf dip test (rag doll, 2% v/v RoundUp Ultra)
Description: as §1, §2, §3
The crosses separated the effects of glyphosate on pollen and ovule gametes. To separate effects on pollen, heterozygous plants were sprayed with glyphosate and pollen collected from treated plants was crossed onto homozygous wild type plants. […]

## O=C(O)CNCP(=O)(O)O [glyphosate]
[1]; application at V12, 3 quarts/A, glyphosate resistant plants (FIG. 1)
  elimination of non-transgenic gametes: eliminated most non-transgenic female and male gametes
[1]; application at V15 or later, 3 quarts/A, glyphosate resistant plants (FIGS. 2-5)
  elimination of non-transgenic gametes: primarily eliminated non-transgenic female gametes
[2]; high rates applied at V14, expected 50% if no effect (FIG. 8)
  progeny resistant to glyphosate: ~100%
[2]; highest rate, applications made before V14 (FIG. 8)
  progeny resistant to glyphosate: intermediate
[2]; treated at V10 and V12 at the lowest rate, pollinated with wild type pollen (FIG. 8)
  segregation of progeny: segregated as expected if glyphosate had no affect on wild type ovules
[2]; two pass program V10+V14 (FIG. 8)
  progeny resistant to glyphosate: ~100%
[3]
  progeny resistant to glyphosate: ~100%
[4]; sprayed then selfed (FIG. 10)
  ratio of homozygous wild type plants in selfed progeny (QtPCR): significantly reduced the ratio of homozygous wild type plants
[4]; two pass applications at the highest rates (FIG. 10)
  percentage of homozygous glyphosate resistant plants in selfed progeny (QtPCR): produced the greatest percentage of homozygous glyphosate resistant plants
[5]; 1.6 vs 3.2 l/Ha, V10, V12, V14, V10+V14
  effect on wild type pollen: dependence on rate or time of application: not affected by rate or time of application
[5]; V10, V12, V14, V10+V14, 1.6 and 3.2 l/Ha (FIG. 7)
  rouging of wild type pollen (leaf dip test): highly effective in rouging wild type pollen
[5]; treated plants crossed to wild type ovules, all rates and timings, expected 50% if no effect (FIG. 7)
  progeny resistant to glyphosate: ~100%
